{
  "source": "patent US11229662B2",
  "about": "“Compositions and methods for the treatment of aberrant angiogenesis” (The Schepens Eye Research Institute, Inc., priority 2016, dated 2022)",
  "key": {"[1]": {"test_system": "HRMEC", "assay": "Tube forming assay", "format": "cell-based, human", "method": "HRMEC were treated overnight with 75 μM Ro5-3335 or DMSO before plating 20000 cells onto wells pre-coated with basement membrane extract (Trevigen). Cells were imaged six h after plating and tube formation was quantified using the Angiogenesis Analyzer plugin for ImageJ."}, "[2]": {"test_system": "C57BL/6J mice with OIR", "assay": "Oxygen-induced retinopathy (OIR) mouse model, retinal flat mounts", "format": "in vivo", "settings": "P17", "method": "OIR was induced in wild-type C57BL/6J mice as previously described (Smith L E et al., (1994) Invest Ophthalmol Vis Sci 35(1):101-111). Intravitreal injections with 1 μL of 75 μM Ro5-3335 RUNX1 inhibitor or DMSO were performed on left eyes only at P13 and P15 under ketamine/xylazine anesthesia. Pups were euthanized at P17 and eyes were collected, fixed in 4% paraformaldehyde, and used for retinal flat mounts (nvehicle=7; nRo5-3335=9). Avascular and neovascular areas were quantified using Photoshop as previously described (Connor H M et al., (2009) Nature Protocols 4(11):1565-1573)."}, "[3]": {"test_system": "HRMEC", "assay": "Scratch-wound migration assay", "format": "cell-based, human", "settings": "for wound closure (scratch assay): siRNA knockdown of RUNX1, 0-12 h", "method": "(§1) FVMs were collected and CD31+ cells were isolated as previously described [Kim L A, et al. (2015) Mol Vis 21:673-687]. RNA-sequencing was performed using an Illumina HiSeq 2000 (Illumina Inc.), aligned with TopHat (Trapnell et al. (2009) Bioinformatics 25(9):1105-1111], and analyzed using Partek Flow, CuffLinks, EdgeR, and DESeq2. A mixed model ANOVA was used with a threshold false discovery rate (FDR) of <0.05 and fold change >±2 for significance. Gene Ontology was determined using the Database for Annotation, Visualization, and Integrated Discovery (DAVID). […] FVMs and cells were immunostained with standard protocols for paraffin embedded samples.\nMigration was assessed with the scratch-wound assay (Liang C C et al. (2007) Nature Protocols 2(2):329-333). One scratch was generated per well and imaged on an EVOS® imaging system every three hours for 12 h. Images were analyzed with the TScratch Matlab module (Geback et al. (2009) Biotechniques 46(4):265-274)."}, "[4]": {"test_system": "RUNX1", "assay": "qRT-PCR of RUNX1 expression", "format": "cell-based, human", "method": "as §1\n(§2) siRNA ([…]) (Integrated DNA Technologies; sequences in Table 4) was transfected for 6-8 h using DharmaFECT 1 (GE Life Sciences—Dharmacon) in Opti-MEM (Life Technologies).\n(§3) RNA was extracted using RNeasy Mini Kits (Qiagen). Primers were purchased from Integrated DNA Technologies for 200 candidate genes (Table 4). Genes were excluded from further analysis if there was no amplification or amplification was outside the linear range. […] Fluorescent intensities were normalized to spike-in controls (ERCC RNA Spike-In Mix; Life Technologies), HPRT1, and B2M."}, "[5]": {"test_system": "IGFBP3", "assay": "qRT-PCR of IGFBP3 expression", "format": "cell-based, human", "settings": "RUNX1 siRNA knockdown", "method": "as §2, §3\nHRMEC were transfected with pCMV5-AML1c (Addgene Plasmid #12426) (the plasmid contains the sequence of RUNX1 encoding 480 amino acids; in the sequences listed herein this corresponds to RUNX1g) or pCMV5 empty vector using the HCAEC Nucleofector kit (VPB-1001; Program S-005) following manufacturer's optimized protocol."}, "[6]": {"test_system": "RUNX3", "assay": "qRT-PCR of RUNX3 expression", "format": "cell-based, human", "settings": "RUNX1 siRNA; 48 hours post-transfection", "method": "as §2, §3"}, "[7]": {"test_system": "HRMEC", "assay": "Ki67 proliferation assay", "format": "cell-based, human", "method": "FVMs and cells were incubated with mouse anti-RUNX1 (Santa Cruz) followed by biotinylated secondary antibody (Vector Laboratories), horseradish peroxidase (HRP)-labeled avidin (PerkinElmer), tyramide signal amplification (TSA, PerkinElmer), Vector Red chromogenic substrate (Vector Laboratories) and Gill no. 3 hematoxylin counterstain (Sigma-Aldrich). Immunofluorescent staining for CD31 (mouse anti-CD31; Dako) and Ki67 (rabbit anti-Ki67; Novus Biologicals) was performed as previously described (Kim L A, et al. (2015) Mol Vis 21:673-687). The number of Ki67 positive nuclei was averaged for three fields of view per sample at 20× magnification.\nHRMEC were probed for proliferation with the Ki67 marker as follows: cells were permeabilized with 0.5% Triton X-100 in PBS for 5 min, blocked with 5% goat serum in PBS for 2 h at room temperature, incubated with primary antibody overnight at 4° C. (rabbit anti-Ki67 1:50; Novus Biologicals), and incubated with secondary for 2 h at room temperature (goat anti-rabbit Alexa Fluor 594 1:250; Life Technologies Corp.). Samples were imaged using an EVOS® imaging system. The number of Ki67 positive nuclei was averaged for three fields of view per sample at 20× magnification."}, "[8]": {"test_system": "RUNX2", "assay": "qRT-PCR of RUNX2 expression", "format": "cell-based, human", "settings": "RUNX1 siRNA; 48 hours post-transfection", "method": "as §2, §3"}, "[9]": {"settings": "HIV treatment trial, Haubrich et al. (1995); cited from earlier work"}, "[10]": {"test_system": "RUNX1 protein", "assay": "Western blot of RUNX1 protein", "format": "cell-based, human", "settings": "72 hours", "method": "FIG. 13 is an image showing that a commercially available small molecule PIM3 inhibitor (PIM3 kinase inhibitor VII from EMD Millipore) reduced total RUNX1 protein levels in primary culture retinal endothelial cells in normal and high glucose conditions. Human microvascular retinal endothelial cells were cultured in EGM-2 supplemented with different concentrations of D-glucose for 72 hours in the presence of PIM3 inhibitor (PIM3 kinase inhibitor VII from EMD Millipore, Cat No. 526526, 0.05 μM) or vehicle (DMSO). After harvest, proteins were extracted using RIPA buffer and analyzed by western blot. RUNX1 was detected using antibodies from Santacruz (sc-365644). β-actin was used as a loading control.\nFIG. 19 is set of images showing that gamma-secretase inhibition using Compound E small molecule (100 nM) reduces the expression of RUNX1 in primary culture human microvascular endothelial cells. […]\nWestern Blot Analysis: Cells were lysed using RIPA buffer (Cell Signaling Technology (CST)). […] Immunoreactive bands were visualized using the Odyssey Infrared Imaging System and band intensities normalized to β-actin were quantified using Image Studio version 2.1 (LI-COR)."}, "[11]": {"test_system": "HES1", "assay": "qRT-PCR of HES1 expression", "format": "cell-based, human", "settings": "100 nM; 72 hours; 5 mM and 30 mM D-glucose; vs DMSO", "method": "FIG. 18 is a graph showing that gamma-secretase inhibition using Compound E small molecule (100 nM) reduced the expression of HES1, a canonical downstream target for Notch activity and RUNX1 in primary culture human microvascular endothelial cells. Reduction of HES1 and RUNX1 expression was effective under normal glucose (5 mM D-glucose and high glucose 30 mM D-glucose). Cells were incubated with Compound E or DMSO vehicle control in different glucose concentrations for 72 hours before harvest followed by qRT-PCR for each gene. HPRT1 expression was used as control.\nas §3"}, "[12]": {"settings": "HRMEC treated overnight with 75 μM Ro5-3335, imaged 6 h after plating, vs DMSO"}, "[13]": {"settings": "intravitreal 75 μM at P13 and P15, vs vehicle"}},
  "note": "“Also recorded” adds a separate entry of the source.",
  "data": [
    {"molecule": "O=C1CN=C(c2ccc[nH]2)c2cc(Cl)ccc2N1", "note": "[Ro5-3335]", "values": [
      {"measurement": "meshes reduction", "setting": "[1]; [12]", "value": 46, "unit": "%"},
      {"measurement": "nodes reduction", "setting": "[1]; [12]", "value": 35, "unit": "%"},
      {"measurement": "total tube length reduction", "setting": "[1]; [12]", "value": 18, "unit": "%"},
      {"measurement": "tube forming capacity", "setting": "[1]; overnight treatment, 6 h after plating, vs vehicle treated cells", "value": "reduced tube forming capacity"},
      {"measurement": "avascular area (extent of vaso-obliteration)", "setting": "[2]; [13]", "value": "no significant change; also recorded: non-significant downward trend"},
      {"measurement": "neovascularization / neovascular tufts", "setting": "[2]; [13]", "value": "significant reduction"},
      {"measurement": "reduction in neovascularization", "setting": "[2]; intravitreal 1 μL of 75 μM at P13 and P15, vs vehicle treated eyes", "value": 50, "unit": "%"}
    ]},
    {"molecule": "RUNX1 siRNA: siRNA against human RUNX1, Integrated DNA Technologies; duplex hs.Ri.RUNX1.13.3 (SEQ ID NO: 247/248) (chain 1 CCUUUCAUGUUAAUCAAACAAGUGA; chain 2 UCACUUGUUUGAUUAACAUGAAAGGGA; listed as RNA, chemistry not fully specified)", "values": [
      {"measurement": "decrease in wound closure rate", "setting": "[3]; RUNX1 siRNA knockdown, monitored 12 h, vs controls", "value": 60, "unit": "%"},
      {"measurement": "wound closure (scratch assay)", "setting": "[3]", "value": "effectively inhibits wound closure"},
      {"measurement": "reduction of RUNX1 RNA expression", "setting": "[4]; RUNX1 siRNA, 48 hours post-transfection", "value": 60, "unit": "%"},
      {"measurement": "increase in IGFBP3 mRNA expression", "setting": "[5]", "value": 330, "unit": "%"},
      {"measurement": "RUNX3 RNA expression", "setting": "[6]", "value": "did not significantly affect; also recorded: no significant changes"},
      {"measurement": "cell number and proliferative capacity (Ki67 staining)", "setting": "[7]; 48 h post transfection, vs transfection reagent alone or scramble siRNA", "value": "significant reduction"},
      {"measurement": "fewer Ki67 positive cells", "setting": "[7]; RUNX1 siRNA transfected EC vs controls", "value": 60, "unit": "%"},
      {"measurement": "RUNX2 RNA expression", "setting": "[8]", "value": "did not significantly affect; also recorded: no significant changes"}
    ]},
    {"molecule": "CNC1=Nc2ccc(Cl)cc2C(c2ccc[nH]2)=NC1", "note": "[Ro24-7429]", "values": [
      {"measurement": "safety in clinical trial", "setting": "[9]", "value": "safe"}
    ]},
    {"molecule": "N[C@@H]1CCCN(c2c(/C=C3\\SC(=O)NC3=O)cccc2-c2ccccc2)C1", "note": "[AZD1208]", "values": [
      {"measurement": "reduction in cell migration", "setting": "[7]; treated 48 hours before proliferation assay, Ki67 marker, vs DMSO control", "value": 43, "unit": "%"}
    ]},
    {"molecule": "C[C@H](NC(=O)Cc1cc(F)cc(F)c1)C(=O)N[C@H]1N=C(c2ccccc2)c2ccccc2N(C)C1=O", "note": "[Compound E]", "values": [
      {"measurement": "RUNX1 expression (qRT-PCR)", "setting": "[4]; 100 nM, 72 hours, 5 mM and 30 mM D-glucose, vs DMSO", "value": "reduced"},
      {"measurement": "RUNX1 expression (western blot)", "setting": "[10]; 100 nM, 5 mM and 30 mM D-glucose", "value": "reduces"},
      {"measurement": "HES1 expression", "setting": "[11]", "value": "reduced"}
    ]},
    {"molecule": "CC/C(=N\\NC(=O)c1ccnc(NCCCN2CCOCC2)c1)c1ccc(Cl)cc1O", "note": "[PIM3 kinase inhibitor VII, N′-(1-(4-Chloro-2-hydroxyphenyl)propylidene)-2-((3-morpholinopropyl)amino)isonicotinohydrazide]", "values": [
      {"measurement": "total RUNX1 protein levels", "setting": "[10]; 0.05 μM, normal and high glucose, vs DMSO", "value": "reduced"}
    ]},
    {"molecule": "siRNA-2: second RUNX1 siRNA; probably duplex HSC.RNAI.N001001890.12.1 (SEQ ID NO: 249/250) (chain 1 ACUAGAUGAUCAGACCAAGCCCGGG; chain 2 CCCGGGCUUGGUCUGAUCAUCUAGUUU; listed as RNA, chemistry not fully specified)", "values": [
      {"measurement": "wound closure (scratch assay)", "setting": "[3]", "value": "functional inhibition"}
    ]}
  ]
}
